Measurements from patent publication US20100130909A1, “TREATMENT OF BARRETT'S ESOPHAGUS USING PHOTODYNAMIC THERAPY” (HEALTH RESEARCH, INC., priority 2007, published 2010).
Where two headings read alike, the source gives them in different places.

What was measured:
[1] = system: Barrett's esophagus tissue; experiment: phase I/II trial of photodynamic therapy using HPPH in patients with Barrett's esophagus; format: in vivo, human; conditions: 30 patients
Protocol: injecting HPPH in a physiologically compatible medium into a patient having Barrett's esophagus tissue to provide a dose level of 3 through 5 mg/m^2 of body surface area, preferably 3 through 4 mg/m^2 of body surface area,
waiting for a time period of 24 through 60 hours to permit preferential absorption of the
HPPH into Barrett's esophagus tissue, and exposing the Barrett's esophagus tissue to light at a wavelength of about 670±5 nm at an energy of from 75 to 200 Joules/cm, preferably 75 to 200 Joules/cm.
Injection of the HPPH is preferably accomplished intravenously usually over a time period of 0.75 to 3 hours in a physiologically compatible medium. The time period is functionally dependent upon rate of infusion and dose level desired. The concentration is preferably 0.5 through 1.5 mg/ml in medium and the medium is preferably 0.1% polysorbate 80, 2% ethyl alcohol and 5% glucose in normal saline.
Exposure is accomplished using a fiber optic carrying laser light emitted by a laser. The laser may be any suitable laser emitting light at the wavelength and energy desired, e.g. a dye or diode laser. Exposure may be adjusted by length of time of exposure and/or adjustment of light intensity.
Using the above parameters, a phase I/II trial using HPPH and a phase III trial using PHOTOFRIN™, the latter approved by the United States Food and Drug Administration, the following results for response of Barrett's esophagus were obtained.

[2] = system: Barrett's mucosa; conditions: cited from earlier work; for Treatment response: CR, PDT + NdYAG thermal ablation: compilation of 1-3 PDT treatments + thermal ablation of small residual islands; for Complications: esophageal stricture / Treatment response: CR (no Barrett's esophagus tissue remained after treatment), PDT only: compilation of 1-3 PDT treatments; for Treatment response: CR (no Barrett's esophagus tissue remained after treatment), PDT only: porfimer sodium 2 mg/kg
[3] = only 1 PDT treatment, percent of patients
[4] = 100 patients, percent of patients
[5] = 100 patients, percent of patients, listed as porfimer sodium

Q: Which “Treatment response: patients with >90 to <100% ablation, PDT only” value ([1]; only 1 PDT treatment, does not include NdYAG thermal ablation) does the source give for “3-(1-hexyloxy) ethyl-derivative of pyropheophorbide-a [HPPH]” here?
A: The value was 47% (>90 to <100%.

Q: What about the “Complications: esophageal stricture” value [1, 3] of the same substance?
A: Its value is 12%.

Q: And the “Treatment response: CR (no Barrett's esophagus tissue remained after treatment), PDT only” value [1, 3]?
A: The value was 4% CR.

Q: What about the “Complications: sunburn” value ([1]; percent of patients) of the same substance?
A: The value was <7%.

Q: Which results are given for porfimer sodium [PHOTOFRIN]?
A: Complete ablation of Barrett's mucosa (PDT only or with thermal ablation) ([2]; 100 patients, 2 mg/kg, 630 nm, 100 to 250 J/cm, percent of patients): 43%; Treatment response: CR, PDT + NdYAG thermal ablation [2, 4]: 35% CR; Treatment response: CR, PDT + NdYAG thermal ablation [2, 5]: 35%; Complications: esophageal stricture [2, 4]: 34%; Complications: esophageal stricture [2, 5]: 34%; Treatment response: CR (no Barrett's esophagus tissue remained after treatment), PDT only ([2]; 100 patients, 630 nm, 100 to 250 J/cm, percent of patients): 8% CR; Treatment response: CR (no Barrett's esophagus tissue remained after treatment), PDT only ([2]; 100 patients, 630 nm, 100 to 250 J/cm, percent of patients, listed as porfimer sodium): 8%; Complications: sunburn [2, 4]: 25-30%; replacement of Barrett's mucosa with normal esophageal mucosa ([2]; all 100 patients treated, 2 mg/kg, 630 nm, 100 to 250 J/cm, percent of mucosa): 75-80%
